Reference: patent publication US20090270398A1, “Compounds, Compositions and Methods Comprising Pyridazine Derivatives” (Institute for OneWorld Health, priority 2008, published 2009)

The molecules below were run against T1, CFTR (Homo sapiens, UniProt P13569) (assay: T84 assay (FLIPR membrane potential, forskolin/IBMX-stimulated CFTR channel activity)). Details: average of at least 2 runs unless annotated n = 1.
T1 construct: results in the phosphorylation and opening of CFTR anion channels
T1 sequence (P13569 whole entry): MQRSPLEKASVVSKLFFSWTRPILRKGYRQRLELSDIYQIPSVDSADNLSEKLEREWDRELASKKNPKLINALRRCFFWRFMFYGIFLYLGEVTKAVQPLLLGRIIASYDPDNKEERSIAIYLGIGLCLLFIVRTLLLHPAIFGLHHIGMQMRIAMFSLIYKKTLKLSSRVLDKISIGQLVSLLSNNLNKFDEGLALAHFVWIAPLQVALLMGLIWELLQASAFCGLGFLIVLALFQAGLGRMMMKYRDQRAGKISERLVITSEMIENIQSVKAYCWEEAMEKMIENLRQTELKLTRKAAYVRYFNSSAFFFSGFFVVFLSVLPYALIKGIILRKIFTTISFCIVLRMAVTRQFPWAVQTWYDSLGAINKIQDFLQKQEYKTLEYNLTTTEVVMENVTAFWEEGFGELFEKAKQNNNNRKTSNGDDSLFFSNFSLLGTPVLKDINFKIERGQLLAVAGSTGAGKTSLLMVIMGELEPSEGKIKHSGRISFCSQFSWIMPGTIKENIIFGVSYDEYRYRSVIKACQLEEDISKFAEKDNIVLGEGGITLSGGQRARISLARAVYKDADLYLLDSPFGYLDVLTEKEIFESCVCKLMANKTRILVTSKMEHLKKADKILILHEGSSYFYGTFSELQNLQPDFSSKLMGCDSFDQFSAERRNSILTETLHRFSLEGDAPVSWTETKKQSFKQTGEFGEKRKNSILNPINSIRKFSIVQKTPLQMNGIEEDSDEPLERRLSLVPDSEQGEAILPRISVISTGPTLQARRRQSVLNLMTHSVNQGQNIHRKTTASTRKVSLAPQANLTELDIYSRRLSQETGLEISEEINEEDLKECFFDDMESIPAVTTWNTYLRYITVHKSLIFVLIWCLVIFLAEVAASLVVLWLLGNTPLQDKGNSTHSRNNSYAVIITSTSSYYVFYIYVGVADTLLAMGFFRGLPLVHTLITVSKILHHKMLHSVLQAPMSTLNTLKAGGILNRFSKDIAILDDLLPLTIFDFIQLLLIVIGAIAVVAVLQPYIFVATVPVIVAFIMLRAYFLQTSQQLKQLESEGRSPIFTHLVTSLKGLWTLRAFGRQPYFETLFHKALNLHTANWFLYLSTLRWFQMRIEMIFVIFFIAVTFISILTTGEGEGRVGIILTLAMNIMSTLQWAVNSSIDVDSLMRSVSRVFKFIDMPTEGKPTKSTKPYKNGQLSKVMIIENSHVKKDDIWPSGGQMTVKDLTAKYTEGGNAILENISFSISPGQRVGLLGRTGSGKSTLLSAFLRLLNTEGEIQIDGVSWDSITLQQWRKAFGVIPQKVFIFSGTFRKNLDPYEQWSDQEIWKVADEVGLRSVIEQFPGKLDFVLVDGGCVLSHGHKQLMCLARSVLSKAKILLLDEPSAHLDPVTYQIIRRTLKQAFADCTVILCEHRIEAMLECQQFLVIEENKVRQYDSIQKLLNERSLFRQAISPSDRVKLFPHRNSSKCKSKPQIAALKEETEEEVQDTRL
Type: cell-based
Protocol: (§1) For example, Human colonic T84 cells can be acquired from the European Collection of Cell Cultures (ECACC) and grown in standard culture conditions as described by the supplier. On the day before assay 25,000 T84 cells per well are plated into standard black walled, clear bottom 384-well assay plates in standard growth medium consisting of DMEM:F12 with 10% FBS and incubated overnight. On the day of the assay the plates are washed using a standard assay buffer (HBSS with 10 mM Hepes) and incubated for 15 minutes in serum free cell culture medium before the addition of a commercially available membrane potential sensitive fluorescent dye (FLIPR Red membrane potential dye, Molecular Devices Corporation). T84 cells are incubated with the FLIPR Red membrane potential dye for 45 minutes in the presence and absence of test compound before being transferred to a commercially available fluorescence imaging plate reader (FLIPR384, Molecular Devices Corporation). Fluorescence levels are monitored continuously every second for 150 seconds; after an initial 10 second baseline, CFTR channel activity is stimulated through the addition of 10 μM forskolin in the presence of 100 μM of the phosphodiesterase inhibitor iso-butyl-methylxanthine (IBMX). Addition of the forskolin leads to the activation of intracellular adenylyl cylase 1, elevating cAMP levels and results in the phosphorylation and opening of CFTR anion channels. CFTR channel opening causes chloride ion efflux and subsequent depolarization of the cells, which is measured by an increase in fluorescence. CFTR inhibitor compounds prevent cell depolarization and the associated increase in fluorescence.
as §1, with “Human colonic” for “For example, Human colonic”, “T84 cells are acquired from” for “T84 cells can be acquired from”, “(ECACC) and are grown in” for “(ECACC) and grown in”
Unless otherwise indicated, the IC50 values are reported as an average of at least 2 runs. Where only 1 run is used, this is indicated by the annotation “n=1.”
Molecule `Oc1c(Br)cc(-c2ccc(OCc3ccc(F)cc3Cl)nn2)cc1Br` [Compound 89, 2,6-dibromo-4-(6-(2-chloro-4-fluorobenzyloxy)pyridazin-3-yl)phenol] has an IC50 of 6.01 µM. `CC(Oc1ccc(-c2cc(Br)c(O)c(Br)c2)nn1)c1cccc(Cl)c1` (stereo not drawn) [Compound 90, 2,6-dibromo-4-(6-(1-(3-chlorophenyl)ethoxy)pyridazin-3-yl)phenol] gave an IC50 of 17.6 µM. Work on `Oc1c(Br)cc(-c2ccc(OCc3cccc(Br)c3)nn2)cc1Br` [Compound 91, 2,6-dibromo-4-(6-(3-bromobenzyloxy)pyridazin-3-yl)phenol] yielded an IC50 of 26.1 µM. With `Oc1c(Br)cc(-c2ccc(OCCc3ccc(Cl)cc3)nn2)cc1Br` [Compound 92, 2,6-dibromo-4-(6-(4-chlorophenethoxy)pyridazin-3-yl)phenol] the IC50 was 3.38 µM. `Oc1c(Br)cc(-c2ccc(OCCc3ccc(Br)cc3)nn2)cc1Br` [Compound 93, 2,6-dibromo-4-(6-(4-bromophenethoxy)pyridazin-3-yl)phenol] gave an IC50 of 4.2 µM. `Oc1c(Br)cc(-c2ccc(OCCc3cccc(Cl)c3Cl)nn2)cc1Br` [Compound 94, 2,6-dibromo-4-(6-(2,3-dichlorophenethoxy)pyridazin-3-yl)phenol] gave an IC50 of 8.03 µM. In the case of `Oc1c(Br)cc(-c2ccc(OCc3cccc4ccccc34)nn2)cc1Br` [Compound 95, 2,6-dibromo-4-(6-(naphthalen-1-ylmethoxy)pyridazin-3-yl)phenol], the IC50 is reported as 7.9 µM. With `Oc1c(Cl)cc(-c2ccc(OCc3ccc(F)cc3Cl)nn2)cc1Cl` [Compound 96, 2,6-dichloro-4-(6-(2-chloro-4-fluorobenzyloxy)pyridazin-3-yl)phenol] the IC50 was 3.74 µM. Work on `Oc1c(Br)cc(-c2ccc(OCc3cccc(Cl)c3Cl)nn2)cc1Br` [Compound 99, 2,6-dibromo-4-(6-(2,3-dichlorobenzyloxy)pyridazin-3-yl)phenol] yielded an IC50 of 12.4 µM. In the case of `Oc1c(Br)cc(-c2ccc(OCCc3cccc4ccccc34)nn2)cc1Br` [Compound 100, 2,6-dibromo-4-(6-(2-(naphthalen-1-yl)ethoxy)pyridazin-3-yl)phenol], the IC50 is reported as 25.3 µM. Molecule `CC(C)(C)OC(=O)N1CCC(COc2ccc(-c3cc(Cl)c(O)c(Cl)c3)nn2)(c2ccccc2)CC1` [Compound 101, tert-butyl 4-((6-(3,5-dichloro-4-hydroxyphenyl)pyridazin-3-yloxy)methyl)-4-phenylpiperidine-1-carboxylate] has an IC50 of 12.7 µM. `Oc1c(Cl)cc(-c2ccc(OCCc3cccs3)nn2)cc1Cl` [Compound 102, 2,6-dichloro-4-(6-(2-(thiophen-2-yl)ethoxy)pyridazin-3-yl)phenol] was tested, and the IC50 was 6.84 µM. With `Oc1c(Cl)cc(-c2ccc(OCCc3ccccc3)nn2)cc1Cl` [Compound 103, 2,6-dichloro-4-(6-phenethoxypyridazin-3-yl)phenol] the IC50 was 5.75 µM. For `Oc1c(Cl)cc(-c2ccc(OCCc3cccc(Cl)c3)nn2)cc1Cl` [Compound 104, 2,6-dichloro-4-(6-(3-chlorophenethoxy)pyridazin-3-yl)phenol], the IC50 was 10.4 µM. Work on `Oc1c(Cl)cc(-c2ccc(OCc3cnc(Br)s3)nn2)cc1Cl` [Compound 105, 4-(6-((2-bromothiazol-5-yl)methoxy)pyridazin-3-yl)-2,6-dichlorophenol] yielded an IC50 of 20.8 µM. `Oc1c(Cl)cc(-c2ccc(OCc3ccsc3)nn2)cc1Cl` [Compound 106, 2,6-dichloro-4-(6-(thiophen-3-ylmethoxy)pyridazin-3-yl)phenol] gave an IC50 of 19.5 µM. Molecule `CN(C)CCCOc1ccc(CN2CCC(COc3ccc(-c4cc(Cl)c(O)c(Cl)c4)nn3)(c3ccccc3)CC2)cc1` [Compound 107, 2,6-dichloro-4-(6-((1-(4-(3-(dimethylamino)propoxy)benzyl)-4-phenylpiperidin-4-yl)methoxy)pyridazin-3-yl)phenol] has an IC50 of 2.85 µM. For `Oc1c(Cl)cc(-c2ccc(OCC3(c4ccccc4)CCN(Cc4ccc(Cl)nc4)CC3)nn2)cc1Cl` [Compound 108, 2,6-dichloro-4-(6-((1-((6-chloropyridin-3-yl)methyl)-4-phenylpiperidin-4-yl)methoxy)pyridazin-3-yl)phenol], the IC50 was 0.63 µM. `OCCN(Cc1cccnc1)c1ccc(-c2cc(Cl)c(O)c(Cl)c2)nn1` [Compound 109, 2,6-dichloro-4-(6-((2-hydroxyethyl)(pyridin-3-ylmethyl)amino)pyridazin-3-yl)phenol] gave an IC50 of 4.72 µM. `Oc1c(Cl)cc(-c2ccc(NCc3ccccc3)nn2)cc1Cl` [Compound 110, 4-(6-(benzylamino)pyridazin-3-yl)-2,6-dichlorophenol] showed an IC50 of 0.73 µM. `OCCN(Cc1ccc(F)cc1)c1ccc(-c2cc(Cl)c(O)c(Cl)c2)nn1` [Compound 111, 2,6-dichloro-4-(6-((4-fluorobenzyl)(2-hydroxyethyl)amino)pyridazin-3-yl)phenol] showed an IC50 of 0.37 µM. `OCCN(Cc1ccccc1Cl)c1ccc(-c2cc(Cl)c(O)c(Cl)c2)nn1` [Compound 112, 2,6-dichloro-4-(6-((2-chlorobenzyl)(2-hydroxyethyl)amino)pyridazin-3-yl)phenol] showed an IC50 of 1.53 µM. In the case of `OCCN(Cc1ccccn1)c1ccc(-c2cc(Cl)c(O)c(Cl)c2)nn1` [Compound 113, 2,6-dichloro-4-(6-((2-hydroxyethyl)(pyridin-2-ylmethyl)amino)pyridazin-3-yl)phenol], the IC50 is reported as 17.6 µM. For `COCCN(Cc1ccccc1)c1ccc(-c2cc(Cl)c(O)c(Cl)c2)nn1` [Compound 114, 4-(6-(benzyl(2-methoxyethyl)amino)pyridazin-3-yl)-2,6-dichlorophenol], the IC50 was 0.13 µM. In the case of `OCCN(Cc1ccncc1)c1ccc(-c2cc(Cl)c(O)c(Cl)c2)nn1` [Compound 116, 2,6-dichloro-4-(6-((2-hydroxyethyl)(pyridin-4-ylmethyl)amino)pyridazin-3-yl)phenol], the IC50 is reported as 16.5 µM. `Oc1c(Cl)cc(-c2ccc(NCc3cc(F)ccc3F)nn2)cc1Cl` [Compound 117, 2,6-dichloro-4-(6-(2,5-difluorobenzylamino)pyridazin-3-yl)phenol] was tested, and the IC50 was 1.36 µM. `CN(Cc1ccccc1)c1ccc(-c2cc(Cl)c(O)c(Cl)c2)nn1` [Compound 118, 4-(6-(benzyl(methyl)amino)pyridazin-3-yl)-2,6-dichlorophenol] gave an IC50 of 0.06 µM. Molecule `Oc1c(Cl)cc(-c2ccc(OCc3ccccc3)nn2)cc1Cl` [Compound 119, 4-(6-(benzyloxy)pyridazin-3-yl)-2,6-dichlorophenol] has an IC50 of 2.76 µM. For `CN(Cc1cccc(Oc2ccccn2)c1)c1ccc(-c2cc(Cl)c(O)c(Cl)c2)nn1` [Compound 120, 2,6-dichloro-4-(6-(methyl(3-(pyridin-2-yloxy)benzyl)amino)pyridazin-3-yl)phenol], the IC50 was 1.71 µM. `CN(Cc1ccc(F)c(F)c1)c1ccc(-c2cc(Cl)c(O)c(Cl)c2)nn1` [Compound 121, 2,6-dichloro-4-(6-((3,4-difluorobenzyl)(methyl)amino)pyridazin-3-yl)phenol] gave an IC50 of 0.23 µM. `Oc1c(Cl)cc(-c2ccc(N3CCc4ccccc4C3)nn2)cc1Cl` [Compound 122, 2,6-dichloro-4-(6-(3,4-dihydroisoquinolin-2(1H)-yl)pyridazin-3-yl)phenol] gave an IC50 of 0.15 µM. Work on `OCCN(Cc1cccc(Cl)c1Cl)c1ccc(-c2cc(Cl)c(O)c(Cl)c2)nn1` [Compound 123, 2,6-dichloro-4-(6-((2,3-dichlorobenzyl)(2-hydroxyethyl)amino)pyridazin-3-yl)phenol] yielded an IC50 of 1.41 µM. `CN(Cc1cccnc1)c1ccc(-c2cc(Cl)c(O)c(Cl)c2)nn1` [Compound 124, 2,6-dichloro-4-(6-(methyl(pyridin-3-ylmethyl)amino)pyridazin-3-yl)phenol] was tested, and the IC50 was 1.65 µM. `CN(Cc1ccc(-c2ccncc2)cc1)c1ccc(-c2cc(Cl)c(O)c(Cl)c2)nn1` [Compound 125, 2,6-dichloro-4-(6-(methyl(4-(pyridin-4-yl)benzyl)amino)pyridazin-3-yl)phenol] was tested, and the IC50 was 2.05 µM. Work on `CCCN(Cc1ccccc1)c1ccc(-c2cc(Cl)c(O)c(Cl)c2)nn1` [Compound 126, 4-(6-(benzyl(propyl)amino)pyridazin-3-yl)-2,6-dichlorophenol] yielded an IC50 of 0.02 µM. Work on `CCN(Cc1cccc(F)c1)c1ccc(-c2cc(Cl)c(O)c(Cl)c2)nn1` [Compound 127, 2,6-dichloro-4-(6-(ethyl(3-fluorobenzyl)amino)pyridazin-3-yl)phenol] yielded an IC50 of 0.03 µM.
